# According to patent publication US12357598B2, “Treatment of neurodevelopmental disorders” (THE REGENTS OF THE UNIVERSITY OF CALIFORNIA, priority 2018, dated 2025):
# Test system: ddY mice
# Test: Oxylipin analysis of plasma and brain regions of juvenile offspring after maternal glyphosate exposure
# Type: in vivo, mouse
# Details: juvenile offspring (P28), maternal 0.095% glyphosate
# From the text: Collection of blood and brain samples and oxylipin analysis. Water or 0.095% glyphosate was given to pregnant mice from E5 to P21, as described above. The male offspring were separated from their mothers at weaning (P21). At juvenile (P28) stage, mice were deeply anesthetized with isoflurane and plasma was collected. Subsequently, brains were removed from the skulls. For Western blot analysis, brain regions such as prefrontal cortex (PFC), hippocampus, and striatum, were dissected from brain on ice. The samples were stored at −80° C. before assay. For oxylipin analysis, plasma was collected after isoflurane anesthesia at juvenile (P28) stage. Subsequently, PFC, hippocampus, and striatum were dissected from brain on ice, and the samples were stored at −80° C. before assay. Measurement of eicosanoids in the plasma and brain regions was performed at UC Davis using the previous method (4).
smiles,measurement,setting,value
O=C(O)CNCP(=O)(O)O [glyphosate],"4,5-DiHDPE level",PFC,1.083 ± 0.242 pmol/g
same,5(6)-EpETrE level,PFC,3862.881 ± 1353.639 pmol/g
same,"5,6-DiHETrE level",PFC,0.699 ± 0.113 pmol/g
same,5-HEPE level,PFC,1.760 ± 0.234 pmol/g
same,5-HETE level,PFC,18.560 ± 1.797 pmol/g
same,5-oxo-ETE level,PFC,142.497 ± 16.459 pmol/g
same,6-keto-PGF1a level,PFC,88.691 ± 7.208 pmol/g
same,7(8)-EpDPE level,PFC,3640.707 ± 1175.101 pmol/g
same,8(9)-EpETE level,PFC,1.992 ± 0.638 pmol/g
same,8(9)-EpETrE alt level,PFC,447.323 ± 148.765 pmol/g
same,8(9)-EpETrE level,PFC,12713.4 ± 6124.0 pmol/g
same,8-HEPE level,PFC,0.959 ± 0.080 pmol/g
same,8-HETE level,PFC,7.904 ± 0.840 pmol/g
same,9(10)-EpOME level,PFC,57.775 ± 18.915 pmol/g
same,"9,10,13-TriHOME level",PFC,31.772 ± 4.440 pmol/g
same,"9,12,13-TriHOME level",PFC,52.749 ± 6.979 pmol/g
same,9-HETE level,PFC,1.826 ± 0.587 pmol/g
same,9-HODE level,PFC,32.184 ± 2.752 pmol/g
same,10(11)-EpDPE level,PFC,270.138 ± 86.641 pmol/g
same,11(12)-EpETE level,PFC,2.775 ± 0.733 pmol/g
same,11(12)-EpETrE level,PFC,1128.684 ± 354.042 pmol/g
same,"11,12-,15-TriHETrE level",PFC,27.925 ± 2.262 pmol/g
same,"11,12-DiHETrE level",PFC,1.383 ± 0.124 pmol/g
same,11-HETE level,PFC,275.604 ± 19.707 pmol/g
same,12(13)-EpOME level,PFC,67.240 ± 21.629 pmol/g
same,12-HEPE level,PFC,6.850 ± 1.105 pmol/g
same,12-HETE level,PFC,448.365 ± 69.003 pmol/g
same,12-oxo-ETE level,PFC,2140.116 ± 142.081 pmol/g
same,13(14)-EpDPE level,PFC,190.175 ± 59.161 pmol/g
same,"13,14-DiHDPE level",PFC,0.851 ± 0.076 pmol/g
same,13-HODE level,PFC,45.239 ± 3.261 pmol/g
same,14(15)-EpETE level,PFC,1.633 ± 0.487 pmol/g
same,14(15)-EpETrE level,PFC,1037.632 ± 291.994 pmol/g
same,"14,15-DiHETrE level",PFC,2.498 ± 0.243 pmol/g
same,15(16)-EpODE level,PFC,0.500 ± 0.121 pmol/g
same,15(S)-HETrE level,PFC,11.900 ± 1.029 pmol/g
same,15-HETE level,PFC,313.016 ± 24.240 pmol/g
same,15-oxo-ETE level,PFC,10.104 ± 1.289 pmol/g
same,16(17)-EpDPE level,PFC,195.454 ± 58.684 pmol/g
same,"16,17-DiHDPE level",PFC,1.154 ± 0.110 pmol/g
same,17(18)-EpETE level,PFC,3.729 ± 1.017 pmol/g
same,17-HDoHE level,PFC,6200.527 ± 739.211 pmol/g
same,19(20)-EpDPE level,PFC,353.450 ± 99.156 pmol/g
same,"19,20-DiHDPE level",PFC,7.491 ± 0.703 pmol/g
same,EKODE level,PFC,12.663 ± 1.143 pmol/g
same,LTB3 level,PFC,53.423 ± 26.072 pmol/g
same,PGD2 level,PFC,439.532 ± 37.011 pmol/g
same,PGE2 level,PFC,137.389 ± 14.051 pmol/g
same,PGF2a level,PFC,431.431 ± 34.510 pmol/g
same,TXB2 level,PFC,246.160 ± 16.777 pmol/g
same,"4,5-DiHDPE level",hippocampus,1.572 ± 0.704 pmol/mL
same,5(6)-EpETrE level,hippocampus,917.184 ± 134.826 pmol/mL
same,"5,6-DiHETrE level",hippocampus,0.470 ± 0.051 pmol/mL
same,5-HEPE level,hippocampus,2.917 ± 0.708 pmol/mL
same,5-HETE level,hippocampus,16.705 ± 0.992 pmol/mL
same,5-oxo-ETE level,hippocampus,94.461 ± 9.488 pmol/mL
same,6-keto-PGF1a level,hippocampus,113.103 ± 15.509 pmol/mL
same,7(8)-EpDPE level,hippocampus,460.824 ± 81.977 pmol/mL
same,8(9)-EpETE level,hippocampus,3.435 ± 0.784 pmol/mL
same,8(9)-EpETrE alt level,hippocampus,89.694 ± 12.609 pmol/mL
same,8(9)-EpETrE level,hippocampus,971.2 ± 484.7 pmol/mL
same,8-HEPE level,hippocampus,1.415 ± 0.182 pmol/mL
same,8-HETE level,hippocampus,5.383 ± 0.796 pmol/mL
same,9(10)-EpOME level,hippocampus,9.131 ± 1.032 pmol/mL
same,"9,10,13-TriHOME level",hippocampus,29.123 ± 5.450 pmol/mL
same,"9,12,13-TriHOME level",hippocampus,51.599 ± 10.194 pmol/mL
same,9-HETE level,hippocampus,2.073 ± 0.532 pmol/mL
same,9-HODE level,hippocampus,31.282 ± 6.681 pmol/mL
same,10(11)-EpDPE level,hippocampus,40.179 ± 5.185 pmol/mL
same,11(12)-EpETE level,hippocampus,1.254 ± 0.537 pmol/mL
same,11(12)-EpETrE level,hippocampus,254.371 ± 33.701 pmol/mL
same,"11,12-,15-TriHETrE level",hippocampus,20.278 ± 1.789 pmol/mL
same,"11,12-DiHETrE level",hippocampus,0.914 ± 0.053 pmol/mL
same,11-HETE level,hippocampus,261.315 ± 27.149 pmol/mL
same,12(13)-EpOME level,hippocampus,11.355 ± 1.474 pmol/mL
same,12-HEPE level,hippocampus,9.094 ± 3.984 pmol/mL
same,12-HETE level,hippocampus,131.250 ± 40.185 pmol/mL
same,12-oxo-ETE level,hippocampus,1245.436 ± 206.406 pmol/mL
same,13(14)-EpDPE level,hippocampus,27.748 ± 3.955 pmol/mL
same,"13,14-DiHDPE level",hippocampus,0.516 ± 0.089 pmol/mL
same,13-HODE level,hippocampus,54.648 ± 8.929 pmol/mL
same,14(15)-EpETE level,hippocampus,0.712 ± 0.184 pmol/mL
same,14(15)-EpETrE level,hippocampus,241.703 ± 26.592 pmol/mL
same,"14,15-DiHETrE level",hippocampus,1.183 ± 0.095 pmol/mL
same,15(16)-EpODE level,hippocampus,2.750 ± 0.907 pmol/mL
same,15(S)-HETrE level,hippocampus,7.994 ± 1.430 pmol/mL
same,15-HETE level,hippocampus,263.402 ± 29.963 pmol/mL
same,15-oxo-ETE level,hippocampus,8.232 ± 0.652 pmol/mL
same,16(17)-EpDPE level,hippocampus,29.112 ± 4.286 pmol/mL
same,"16,17-DiHDPE level",hippocampus,0.675 ± 0.093 pmol/mL
same,17(18)-EpETE level,hippocampus,1.592 ± 0.499 pmol/mL
same,17-HDoHE level,hippocampus,5997.276 ± 762.508 pmol/mL
same,19(20)-EpDPE level,hippocampus,55.856 ± 8.656 pmol/mL
same,"19,20-DiHDPE level",hippocampus,5.359 ± 0.322 pmol/mL
same,EKODE level,hippocampus,11.362 ± 1.014 pmol/mL
same,LTB3 level,hippocampus,13.669 pmol/mL
same,PGD2 level,hippocampus,349.020 ± 34.288 pmol/mL
same,PGE2 level,hippocampus,68.947 ± 7.203 pmol/mL
same,PGF2a level,hippocampus,314.752 ± 30.178 pmol/mL
same,TXB2 level,hippocampus,198.203 ± 24.835 pmol/mL
